Measured values published in US20150265614A1, “ORAL PREPARATION AND METHOD FOR PRODUCING THE SAME” (CHUNG-ANG UNIVERSITY INDUSTRY-ACADEMY COOPERATION FOUNDATION, priority 2012, published 2015).

Assay: laser scattering particle size analysis of naproxen crystal particles
Format: physicochemical
Settings: HORIBA LA-910 laser scattering particle size analyzer
Source text: The sizes of the crystal particles of naproxen prepared in Examples 6 and 7 and Comparative Example 2 were observed. Specifically, the degree of dispersion of the particle sizes of a nonsteroidal anti-inflammatory drug (NSAID) agent naproxen ((+)-(S)-2-(6-methoxynaphthalen-2-yl)propanoic acid) was observed by using HORIBA LA-910 LASER SCATTERING PARTICLE SIZE ANALYZER. The observation results are each illustrated in FIGS. 16 to 18.

SMILES: COc1ccc2cc([C@H](C)C(=O)O)ccc2c1 [Comparative Example 2, (+)-(s)-2-(6-methoxynaphthalen-2-yl)propanoic acid]
- average particle diameter / average crystal size of naproxen: 9.5 μm
